According to article PMC5920042, “KH176 Safeguards Mitochondrial Diseased Cells from Redox Stress-Induced Cell Death by Interacting with the Thioredoxin System/Peroxiredoxin Enzyme Machinery” (Scientific Reports, 2018):

Key:
CCDC101 = target: T1, CCDC101 (Homo sapiens, UniProt Q96ES7); experiment: Surface Plasmon Resonance binding; conditions: SPR
T1 construct: purchased Abcam Ab124547
T1 sequence (Q96ES7 1-293): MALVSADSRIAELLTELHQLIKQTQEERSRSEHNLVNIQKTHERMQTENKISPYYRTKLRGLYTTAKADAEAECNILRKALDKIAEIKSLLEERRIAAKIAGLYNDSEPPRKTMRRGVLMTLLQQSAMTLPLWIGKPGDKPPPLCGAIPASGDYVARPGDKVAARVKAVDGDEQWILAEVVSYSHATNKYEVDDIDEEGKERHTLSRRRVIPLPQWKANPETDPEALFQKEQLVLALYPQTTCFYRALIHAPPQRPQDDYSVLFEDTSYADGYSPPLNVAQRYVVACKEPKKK
Description: Prior to protein immobilization all proteins were dialyzed against HBS-E (10 mM Hepes, 150 mM NaCl, 3 mM EDTA) buffer that was previously filtered through a 0.45 µM membrane using dialyze slide according to the manufacturer instruction. Human recombinant proteins peroxiredoxin 2 (Novus Biological NBC1-25855) and CCDC101 (Abcam Ab124547) were immobilized on CM5 (carboxymethylated dextran covalently attached to a gold surface) using the amine coupling method according to manufacturer’s recommendation (Biacore, GE Healthcare). Briefly the CM5 surface was activated with the mixture of EDC/NHS. Recombinant proteins at dilution 1 µg/ml in a corresponding buffer i.e. Peroxiredoxin 2 and CCDC101 in sodium acetate buffer 100 mM (pH 4.9). The control channel was activated with EDC/NHS. […] KH176 andKH176m were solubilized in HBSS at stock solution 1 mM. […] The sensor chip surface was regenerated with 1 mM HCl. The specific binding profiles were obtained after subtracting the response signal from the control empty channel and from blank-buffer injection. The specific binding was calculated using Biaeval 3 software (Biacore, GE Healthcare) with the postulate of 1:1 ligand/analyte interaction.

[1] = 28-day repeat oral dose toxicity study, toxicokinetics; type: in vivo, Beagle dogs; conditions: dog
Description: Pharmacokinetics and toxicokinetics measurements were performed by the commercial Contract Research Organizations Sai Life Sciences and WuXi AppTec, respectively, according to their standard protocols and in accordance with relevant guidelines and regulations. C57 BL/6 mice, Sprague Dawley rats, and Beagle dogs were studied.

TrxR1, Trx1 and Prdx2 = target: T2, TrxR1, Trx1 and Prdx2 (Homo sapiens, UniProt P32119); experiment: TrxR1-Trx1-Prdx2 system biochemical assay (NADPH consumption); conditions: 100 µM compound, H2O2 50 µM, NADPH 75 µM
T2 construct: purchased Novus Biological NBP1-44456 (TrxR1), NBC1-18541 (Trx1), NBC1-25855 (Prdx2)
T2 sequence (P32119 1-198): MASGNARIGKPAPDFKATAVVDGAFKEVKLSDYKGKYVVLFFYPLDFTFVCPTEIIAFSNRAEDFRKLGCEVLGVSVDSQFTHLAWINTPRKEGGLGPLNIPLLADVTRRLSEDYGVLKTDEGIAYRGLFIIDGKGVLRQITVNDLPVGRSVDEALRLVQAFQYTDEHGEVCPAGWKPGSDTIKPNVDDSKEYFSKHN
Description: NADPH consumption measurements were performed according to the method described by Nelson et al.[50] in the presence of TrxR1, Trx1 and Prdx2 (Novus Biological NBP1-44456, NBC1-18541 and NBC1-25855, respectively). The incubations contained TrxR1 0.5 µM, Trx1 5 µM, Prdx2 0.5 µM, H2O2 50 µM, NADPH 75 µM in 25 mM potassium phosphate pH 7, 100 mM ammonium sulphate. The experiments were carried out in 96-wells black plates and in triplicate. Briefly, TrxR1, Trx1, and H2O2 were pre-incubated for 5 min at 25 °C for thermal equilibration. Upon addition of NADPH the initial NADPH auto-fluorescence was recorded for 2 min on a scanning microplate reader (PerkinElmer Enspire; Ex. 340 nm, Em. 482 nm) to insure that less than 10% of NADPH is oxidized in the absence of Prdx2. Ultimately Prdx2 was added to start the enzymatic reaction, which was monitored during 60 minutes. To test the effect of the compounds on NADPH consumption, KH176m and KH176 were added at 100 µM final concentration, after the addition of Prdx2. The NADPH fluorescence was followed in time. […] A parallel reaction without TrxR was performed to quantified non-specific NADPH oxidation and used for background correction.

[2] = KH176 10 mg/kg/dose BID oral, F, Day 1, plasma
[3] = KH176 10 mg/kg/dose BID oral, F, Day 28, plasma
[4] = KH176 10 mg/kg/dose BID oral, M, Day 1, plasma
[5] = KH176 10 mg/kg/dose BID oral, M, Day 28, plasma
[6] = KH176 25 mg/kg/dose BID oral, F, Day 1, plasma
[7] = KH176 25 mg/kg/dose BID oral, F, Day 28, plasma
[8] = KH176 25 mg/kg/dose BID oral, M, Day 1, plasma
[9] = KH176 25 mg/kg/dose BID oral, M, Day 28, plasma
[10] = KH176 62.5 mg/kg/dose BID oral, F, Day 1, plasma
[11] = KH176 62.5 mg/kg/dose BID oral, F, Day 28, plasma
[12] = KH176 62.5 mg/kg/dose BID oral, M, Day 1, plasma
[13] = KH176 62.5 mg/kg/dose BID oral, M, Day 28, plasma

CC1=C(C)C(=O)C(CC[C@](C)(O)C(=O)N[C@@H]2CCCNC2)=C(C)C1=O [KH176m]
Binding to CCDC101 (CCDC101): no binding
AUC0–24 h Ratio KH176m/KH176 ([1]; KH176 10 mg/kg/dose BID oral, F, Day 1): 0.864
AUC0–24 h [1, 2]: 7640 ng·h/mL
Cmax [1, 2]: 539 ng/mL
T1/2 [1, 2]: 5.4 h
AUC0–24 h Ratio KH176m/KH176 ([1]; KH176 10 mg/kg/dose BID oral, F, Day 28): 0.719
AUC0–24 h [1, 3]: 10500 ng·h/mL
Cmax [1, 3]: 786 ng/mL
T1/2 [1, 3]: 4.7 h
AUC0–24 h Ratio KH176m/KH176 ([1]; KH176 10 mg/kg/dose BID oral, M, Day 1): 0.848
AUC0–24 h [1, 4]: 13900 ng·h/mL
Cmax [1, 4]: 946 ng/mL
T1/2 [1, 4]: 4.7 h
AUC0–24 h Ratio KH176m/KH176 ([1]; KH176 10 mg/kg/dose BID oral, M, Day 28): 0.668
AUC0–24 h [1, 5]: 12700 ng·h/mL
Cmax [1, 5]: 916 ng/mL
T1/2 [1, 5]: 7.7 h
AUC0–24 h Ratio KH176m/KH176 ([1]; KH176 25 mg/kg/dose BID oral, F, Day 1): 0.845
AUC0–24 h [1, 6]: 35400 ng·h/mL
Cmax [1, 6]: 2200 ng/mL
AUC0–24 h Ratio KH176m/KH176 ([1]; KH176 25 mg/kg/dose BID oral, F, Day 28): 0.823
AUC0–24 h [1, 7]: 32900 ng·h/mL
Cmax [1, 7]: 2170 ng/mL
AUC0–24 h Ratio KH176m/KH176 ([1]; KH176 25 mg/kg/dose BID oral, M, Day 1): 0.967
AUC0–24 h [1, 8]: 41200 ng·h/mL
Cmax [1, 8]: 2610 ng/mL
T1/2 [1, 8]: 11.1 h
AUC0–24 h Ratio KH176m/KH176 ([1]; KH176 25 mg/kg/dose BID oral, M, Day 28): 0.970
AUC0–24 h [1, 9]: 38700 ng·h/mL
Cmax [1, 9]: 2270 ng/mL
T1/2 [1, 9]: 14.3 h
AUC0–24 h Ratio KH176m/KH176 ([1]; KH176 62.5 mg/kg/dose BID oral, F, Day 1): 0.908
AUC0–24 h [1, 10]: 57300 ng·h/mL
Cmax [1, 10]: 3550 ng/mL
T1/2 [1, 10]: 5.3 h
AUC0–24 h Ratio KH176m/KH176 ([1]; KH176 62.5 mg/kg/dose BID oral, F, Day 28): 0.938
AUC0–24 h [1, 11]: 80200 ng·h/mL
Cmax [1, 11]: 4990 ng/mL
T1/2 [1, 11]: 12.2 h
AUC0–24 h Ratio KH176m/KH176 ([1]; KH176 62.5 mg/kg/dose BID oral, M, Day 1): 0.743
AUC0–24 h [1, 12]: 68000 ng·h/mL
Cmax [1, 12]: 4020 ng/mL
T1/2 [1, 12]: 12.9 h
AUC0–24 h Ratio KH176m/KH176 ([1]; KH176 62.5 mg/kg/dose BID oral, M, Day 28): 0.835
AUC0–24 h [1, 13]: 85200 ng·h/mL
Cmax [1, 13]: 5250 ng/mL
Effect on NADPH consumption (TrxR1, Trx1 and Prdx2): significantly accelerate the consumption of NADPH
